In patent US11684607B2, “Secnidazole for use in the treatment of bacterial vaginosis” (priority 2014, dated 2023):

Tested on: bacterial vaginosis
Assay: Telephone diary questionnaire on vaginal discharge and odor (five point scale), mITT population
Assay type: in vivo, human
Conditions: for proportion of women reporting 3-5 for vaginal discharge / proportion of women reporting 3-5 for vaginal odor / proportion of women reporting 4-5 for vaginal discharge / proportion of women reporting 4-5 for vaginal odor: 2 g dose; for Discharge 1 point (Normal/Not an Issue): number of women / Discharge 1 point (Normal/Not an Issue): proportion of women / Discharge 2 points (Mildly Abnormal): number of women / Discharge 2 points (Mildly Abnormal): proportion of women / Discharge 3 points (Moderately Abnormal): number of women / Discharge 3 points (Moderately Abnormal): proportion of women / Discharge 4 points (Severely Abnormal): number of women / Discharge 4 points (Severely Abnormal): proportion of women / Discharge 5 points (Very Severely Abnormal): number of women / Discharge 5 points (Very Severely Abnormal): proportion of women / Odor 1 point (Normal/Not an Issue): number of women / Odor 1 point (Normal/Not an Issue): proportion of women / Odor 2 points (Mildly Abnormal): number of women / Odor 2 points (Mildly Abnormal): proportion of women / Odor 3 points (Moderately Abnormal): number of women / Odor 3 points (Moderately Abnormal): proportion of women / Odor 4 points (Severely Abnormal): number of women / Odor 4 points (Severely Abnormal): proportion of women / Odor 5 points (Very Severely Abnormal): number of women / Odor 5 points (Very Severely Abnormal): proportion of women: 2 g

SMILES: Cc1ncc([N+](=O)[O-])n1CC(C)O (stereo not shown) [SYM-1219, 1-(2-hydroxypropyl)-2-methyl-5-nitromidazole]
- proportion of women reporting 3-5 for vaginal discharge (day 1): 59%
- proportion of women reporting 3-5 for vaginal odor (day 1): 66%
- proportion of women reporting 4-5 for vaginal discharge (day 1): 36%
- proportion of women reporting 4-5 for vaginal odor (day 1): 38%
- proportion of women reporting 3-5 for vaginal discharge (day 3 (~48 hours)): 30%
- proportion of women reporting 3-5 for vaginal odor (day 3 (~48 hours)): 20%
- proportion of women reporting 4-5 for vaginal discharge (day 3 (~48 hours)): 11%
- proportion of women reporting 4-5 for vaginal odor (day 3 (~48 hours)): 9%
- proportion of women reporting 3-5 for vaginal discharge (day 7): 14%
- proportion of women reporting 3-5 for vaginal odor (day 7): 9%
- proportion of women reporting 4-5 for vaginal discharge (day 7): 0%
- proportion of women reporting 4-5 for vaginal odor (day 7): 0%
- Discharge 1 point (Normal/Not an Issue): number of women (Day 1): 6
- Discharge 1 point (Normal/Not an Issue): proportion of women (Day 1): 10%
- Discharge 2 points (Mildly Abnormal): number of women (Day 1): 18
- Discharge 2 points (Mildly Abnormal): proportion of women (Day 1): 31%
- Discharge 3 points (Moderately Abnormal): number of women (Day 1): 13
- Discharge 3 points (Moderately Abnormal): proportion of women (Day 1): 22%
- Discharge 4 points (Severely Abnormal): number of women (Day 1): 17
- Discharge 4 points (Severely Abnormal): proportion of women (Day 1): 29%
- Discharge 5 points (Very Severely Abnormal): number of women (Day 1): 4
- Discharge 5 points (Very Severely Abnormal): proportion of women (Day 1): 7%
- Odor 1 point (Normal/Not an Issue): number of women (Day 1): 8
- Odor 1 point (Normal/Not an Issue): proportion of women (Day 1): 14%
- Odor 2 points (Mildly Abnormal): number of women (Day 1): 12
- Odor 2 points (Mildly Abnormal): proportion of women (Day 1): 21%
- Odor 3 points (Moderately Abnormal): number of women (Day 1): 16
- Odor 3 points (Moderately Abnormal): proportion of women (Day 1): 28%
- Odor 4 points (Severely Abnormal): number of women (Day 1): 17
- Odor 4 points (Severely Abnormal): proportion of women (Day 1): 29%
- Odor 5 points (Very Severely Abnormal): number of women (Day 1): 5
- Odor 5 points (Very Severely Abnormal): proportion of women (Day 1): 9%
- Discharge 1 point (Normal/Not an Issue): number of women (Day 2): 9
- Discharge 1 point (Normal/Not an Issue): proportion of women (Day 2): 17%
- Discharge 2 points (Mildly Abnormal): number of women (Day 2): 20
- Discharge 2 points (Mildly Abnormal): proportion of women (Day 2): 38%
- Discharge 3 points (Moderately Abnormal): number of women (Day 2): 15
- Discharge 3 points (Moderately Abnormal): proportion of women (Day 2): 29%
- Discharge 4 points (Severely Abnormal): number of women (Day 2): 3
- Discharge 4 points (Severely Abnormal): proportion of women (Day 2): 6%
- Discharge 5 points (Very Severely Abnormal): number of women (Day 2): 5
- Discharge 5 points (Very Severely Abnormal): proportion of women (Day 2): 10%
- Odor 1 point (Normal/Not an Issue): number of women (Day 2): 10
- Odor 1 point (Normal/Not an Issue): proportion of women (Day 2): 19%
- Odor 2 points (Mildly Abnormal): number of women (Day 2): 23
- Odor 2 points (Mildly Abnormal): proportion of women (Day 2): 44%
- Odor 3 points (Moderately Abnormal): number of women (Day 2): 10
- Odor 3 points (Moderately Abnormal): proportion of women (Day 2): 19%
- Odor 4 points (Severely Abnormal): number of women (Day 2): 8
- Odor 4 points (Severely Abnormal): proportion of women (Day 2): 15%
- Odor 5 points (Very Severely Abnormal): number of women (Day 2): 1
- Odor 5 points (Very Severely Abnormal): proportion of women (Day 2): 2%
- Discharge 1 point (Normal/Not an Issue): number of women (Day 3): 13
- Discharge 1 point (Normal/Not an Issue): proportion of women (Day 3): 24%
- Discharge 2 points (Mildly Abnormal): number of women (Day 3): 25
- Discharge 2 points (Mildly Abnormal): proportion of women (Day 3): 46%
- Discharge 3 points (Moderately Abnormal): number of women (Day 3): 10
- Discharge 3 points (Moderately Abnormal): proportion of women (Day 3): 19%
- Discharge 4 points (Severely Abnormal): number of women (Day 3): 3
- Discharge 4 points (Severely Abnormal): proportion of women (Day 3): 6%
- Discharge 5 points (Very Severely Abnormal): number of women (Day 3): 3
- Discharge 5 points (Very Severely Abnormal): proportion of women (Day 3): 6%
- Odor 1 point (Normal/Not an Issue): number of women (Day 3): 20
- Odor 1 point (Normal/Not an Issue): proportion of women (Day 3): 37%
- Odor 2 points (Mildly Abnormal): number of women (Day 3): 23
- Odor 2 points (Mildly Abnormal): proportion of women (Day 3): 43%
- Odor 3 points (Moderately Abnormal): number of women (Day 3): 6
- Odor 3 points (Moderately Abnormal): proportion of women (Day 3): 11%
- Odor 4 points (Severely Abnormal): number of women (Day 3): 4
- Odor 4 points (Severely Abnormal): proportion of women (Day 3): 7%
- Odor 5 points (Very Severely Abnormal): number of women (Day 3): 1
- Odor 5 points (Very Severely Abnormal): proportion of women (Day 3): 2%
- Discharge 1 point (Normal/Not an Issue): number of women (Day 4): 19
- Discharge 1 point (Normal/Not an Issue): proportion of women (Day 4): 35%
- Discharge 2 points (Mildly Abnormal): number of women (Day 4): 22
- Discharge 2 points (Mildly Abnormal): proportion of women (Day 4): 40%
- Discharge 3 points (Moderately Abnormal): number of women (Day 4): 8
- Discharge 3 points (Moderately Abnormal): proportion of women (Day 4): 15%
- Discharge 4 points (Severely Abnormal): number of women (Day 4): 5
- Discharge 4 points (Severely Abnormal): proportion of women (Day 4): 9%
- Discharge 5 points (Very Severely Abnormal): number of women (Day 4): 1
- Discharge 5 points (Very Severely Abnormal): proportion of women (Day 4): 2%
- Odor 1 point (Normal/Not an Issue): number of women (Day 4): 27
- Odor 1 point (Normal/Not an Issue): proportion of women (Day 4): 49%
- Odor 2 points (Mildly Abnormal): number of women (Day 4): 18
- Odor 2 points (Mildly Abnormal): proportion of women (Day 4): 33%
- Odor 3 points (Moderately Abnormal): number of women (Day 4): 6
- Odor 3 points (Moderately Abnormal): proportion of women (Day 4): 11%
- Odor 4 points (Severely Abnormal): number of women (Day 4): 4
- Odor 4 points (Severely Abnormal): proportion of women (Day 4): 7%
- Odor 5 points (Very Severely Abnormal): number of women (Day 4): 0
- Odor 5 points (Very Severely Abnormal): proportion of women (Day 4): 0%
- Discharge 1 point (Normal/Not an Issue): number of women (Day 5): 21
- Discharge 1 point (Normal/Not an Issue): proportion of women (Day 5): 43%
- Discharge 2 points (Mildly Abnormal): number of women (Day 5): 17
- Discharge 2 points (Mildly Abnormal): proportion of women (Day 5): 35%
- Discharge 3 points (Moderately Abnormal): number of women (Day 5): 4
- Discharge 3 points (Moderately Abnormal): proportion of women (Day 5): 8%
- Discharge 4 points (Severely Abnormal): number of women (Day 5): 6
- Discharge 4 points (Severely Abnormal): proportion of women (Day 5): 12%
- Discharge 5 points (Very Severely Abnormal): number of women (Day 5): 1
- Discharge 5 points (Very Severely Abnormal): proportion of women (Day 5): 2%
- Odor 1 point (Normal/Not an Issue): number of women (Day 5): 28
- Odor 1 point (Normal/Not an Issue): proportion of women (Day 5): 58%
- Odor 2 points (Mildly Abnormal): number of women (Day 5): 12
- Odor 2 points (Mildly Abnormal): proportion of women (Day 5): 25%
- Odor 3 points (Moderately Abnormal): number of women (Day 5): 5
- Odor 3 points (Moderately Abnormal): proportion of women (Day 5): 10%
- Odor 4 points (Severely Abnormal): number of women (Day 5): 3
- Odor 4 points (Severely Abnormal): proportion of women (Day 5): 6%
- Odor 5 points (Very Severely Abnormal): number of women (Day 5): 0
- Odor 5 points (Very Severely Abnormal): proportion of women (Day 5): 0%
- Discharge 1 point (Normal/Not an Issue): number of women (Day 6): 22
- Discharge 1 point (Normal/Not an Issue): proportion of women (Day 6): 47%
- Discharge 2 points (Mildly Abnormal): number of women (Day 6): 15
- Discharge 2 points (Mildly Abnormal): proportion of women (Day 6): 32%
- Discharge 3 points (Moderately Abnormal): number of women (Day 6): 7
- Discharge 3 points (Moderately Abnormal): proportion of women (Day 6): 15%
- Discharge 4 points (Severely Abnormal): number of women (Day 6): 2
- Discharge 4 points (Severely Abnormal): proportion of women (Day 6): 4%
- Discharge 5 points (Very Severely Abnormal): number of women (Day 6): 1
- Discharge 5 points (Very Severely Abnormal): proportion of women (Day 6): 2%
- Odor 1 point (Normal/Not an Issue): number of women (Day 6): 29
- Odor 1 point (Normal/Not an Issue): proportion of women (Day 6): 62%
- Odor 2 points (Mildly Abnormal): number of women (Day 6): 12
- Odor 2 points (Mildly Abnormal): proportion of women (Day 6): 26%
- Odor 3 points (Moderately Abnormal): number of women (Day 6): 5
- Odor 3 points (Moderately Abnormal): proportion of women (Day 6): 11%
- Odor 4 points (Severely Abnormal): number of women (Day 6): 1
- Odor 4 points (Severely Abnormal): proportion of women (Day 6): 2%
- Odor 5 points (Very Severely Abnormal): number of women (Day 6): 0
- Odor 5 points (Very Severely Abnormal): proportion of women (Day 6): 0%
- Discharge 1 point (Normal/Not an Issue): number of women (Day 7): 24
- Discharge 1 point (Normal/Not an Issue): proportion of women (Day 7): 55%
- Discharge 2 points (Mildly Abnormal): number of women (Day 7): 14
- Discharge 2 points (Mildly Abnormal): proportion of women (Day 7): 32%
- Discharge 3 points (Moderately Abnormal): number of women (Day 7): 6
- Discharge 3 points (Moderately Abnormal): proportion of women (Day 7): 14%
- Discharge 4 points (Severely Abnormal): number of women (Day 7): 0
- Discharge 4 points (Severely Abnormal): proportion of women (Day 7): 0%
- Discharge 5 points (Very Severely Abnormal): number of women (Day 7): 0
- Discharge 5 points (Very Severely Abnormal): proportion of women (Day 7): 0%
- Odor 1 point (Normal/Not an Issue): number of women (Day 7): 33
- Odor 1 point (Normal/Not an Issue): proportion of women (Day 7): 75%
- Odor 2 points (Mildly Abnormal): number of women (Day 7): 7
- Odor 2 points (Mildly Abnormal): proportion of women (Day 7): 16%
- Odor 3 points (Moderately Abnormal): number of women (Day 7): 4
- Odor 3 points (Moderately Abnormal): proportion of women (Day 7): 9%
- Odor 4 points (Severely Abnormal): number of women (Day 7): 0
- Odor 4 points (Severely Abnormal): proportion of women (Day 7): 0%
- Odor 5 points (Very Severely Abnormal): number of women (Day 7): 0
- Odor 5 points (Very Severely Abnormal): proportion of women (Day 7): 0%
- Discharge 1 point (Normal/Not an Issue): number of women (EOS): 36
- Discharge 1 point (Normal/Not an Issue): proportion of women (EOS): 68%
- Discharge 2 points (Mildly Abnormal): number of women (EOS): 9
- Discharge 2 points (Mildly Abnormal): proportion of women (EOS): 17%
- Discharge 3 points (Moderately Abnormal): number of women (EOS): 4
- Discharge 3 points (Moderately Abnormal): proportion of women (EOS): 8%
- Discharge 4 points (Severely Abnormal): number of women (EOS): 3
- Discharge 4 points (Severely Abnormal): proportion of women (EOS): 6%
- Discharge 5 points (Very Severely Abnormal): number of women (EOS): 1
- Discharge 5 points (Very Severely Abnormal): proportion of women (EOS): 2%
- Odor 1 point (Normal/Not an Issue): number of women (EOS): 36
- Odor 1 point (Normal/Not an Issue): proportion of women (EOS): 69%
- Odor 2 points (Mildly Abnormal): number of women (EOS): 7
- Odor 2 points (Mildly Abnormal): proportion of women (EOS): 13%
- Odor 3 points (Moderately Abnormal): number of women (EOS): 9
- Odor 3 points (Moderately Abnormal): proportion of women (EOS): 17%
- Odor 4 points (Severely Abnormal): number of women (EOS): 0
- Odor 4 points (Severely Abnormal): proportion of women (EOS): 0%
- Odor 5 points (Very Severely Abnormal): number of women (EOS): 0
- Odor 5 points (Very Severely Abnormal): proportion of women (EOS): 0%
